Data: patent publication US3944549A, “Amino derivatives of 1,4-benzodioxan” (priority 1972, dated 1976)
“Also recorded” adds a separate entry of the source. Where a name gives a salt, the structure may show the parent alone.

Legend:
femoral artery = assay: Vasodilating properties: injection into the femoral artery in dogs; type: in vivo; conditions: for increase in flow rate of the femoral artery: injection into femoral artery
Protocol: On injection into the femoral artery, no effect is observed at doses of less than 100 μg/kg. […] At these doses, no effect is observed on the arterial pressure AP measured in accordance with the usual conditions.
When administered intra-arterially, the product of Example 6 is injected directly into the femoral artery. The flow rate is increased by 200% from a dose of 10 μg.

[1] = tested on: vertebral, femoral and mesenteric artery flow rates; assay: Vasodilating and cardiovascular properties on intravenous administration in dogs; conditions: for increase in vertebral flow rate: 0.5 mg/kg i.v.
Protocol: (§1) During the series of pharmacological tests, the following parameters were used:
Arterial pressure (abbreviated to AP): this parameter, expressed in mm Hg) is evaluated in accordance with the usual conditions.
Arterial resistance: this parameter (expressed in dynes/sec./cm^-^5) is calculated according to the ratio [formula] Cardiac index: this parameter is expressed in (ml/min.)/kg. Systolic index: this parameter is equal to the ratio cardiac index/frequency.
(§2) Cardiac work: this parameter (expressed in kgm/min.) is calculated according to the relationship: Cardiac work = average AP (mm Hg) × 1.36 = cardiac output (1/min.) × 10^-^3.
(§3) Ratio dp/dt: this parameter corresponds to the variation in pressure expressed in mm Hg per second (in English: Rate of rise of left ventricular pressure).
(§4) The technique used to measure the ratio dp/dt is as follows:
(§5) The cardiac output is determined in Beagle dogs weighing 10 to 15 kg, anesthetised with pentobarbital, by injecting Carbiogreen (1 mg in 0.5 ml) into the right ventricle. A catheter introduced via the carotid artery into the aorta makes it possible to aspirate arterial blood at the rate of 25 ml/min. and to pass it in front of the photoelectric cell of a Beckman cardiodensitometer. The results are interpreted in accordance with the Hamilton method.
(§6) In the case of intravenous administration, the tests were carried out on 4 anaesthetised dogs. The product is perfused intravenously over the course of 5 minutes at doses of 2.5, 5 and 10 mg/kg and, in one test, is administered intraduodenally at a dose of 10 mg/kg.

coronary flow rate = assay: Coronary flow rate and cardiac parameters in anaesthetised dogs, intravenous perfusion; type: in vivo
Protocol: as §1, §2, §3, §4, §5

vertebral artery = assay: Vasodilating properties: injection into the vertebral artery in dogs; type: in vivo; conditions: for decrease in arterial pressure: injection into vertebral artery
Protocol: On injection into the vertebral artery, no effect is observed at doses of less than 1 mg/kg. At a dose of 10 mg/kg, the flow rate increases by 37% and at a dose of 20 mg/kg it only increases by 27%. At these two doses, the arterial pressure decreases respectively by 14 and 28% although no effect had been observed during the injection into the femoral artery.

adrenergic receptors = assay: α-blocking action: reversal of the hypertensive effect of adrenalin; type: in vivo, dogs; conditions: for α-blocking / α-lytic action: conclusion or summary; for hypertensive effects of adrenalin: orally; for dose from which the product is α-blocking (adrenolytic): intravenously
[2] = Acute toxicity, intravenous, in mice; conditions: mouse, in vivo; for LD50: read-out: LD-50 I.V. in mice; for NOAEL: read-out: Maximum non-toxic dose
man = assay: Clinical studies in man; type: in vivo
Source text: In clinical studies, good results were obtained in man by administering tablets such as: […]

[3] = tested on: acetylcholine, isoprenalin, peripheral vagus; assay: Effect on responses to acetylcholine, isoprenalin and stimulation of the peripheral vagus in dogs; conditions: dog, in vivo
intestinal barrier = assay: Intraduodenal administration in dogs: cardiovascular effects and passage through the intestinal barrier; type: in vivo; conditions: for passage through the intestinal barrier: intraduodenal, dogs
Protocol: as §6

[4] = tested on: femoral artery, vertebral artery; assay: Flow rates of femoral and vertebral arteries after oral administration in dogs; type: in vivo
[5] = third test, 0.5, 1, 2 and 4 mg/kg i.v. without stopping
[6] = 4 anaesthetised dogs, 2.5, 5 and 10 mg/kg i.v.
[7] = anaesthetised dogs (Nembutal), 2.5 mg/kg i.v. over 5 minutes

With `OCCN1CCN(CC2COc3ccccc3O2)CC1` (centres unmarked) [Example 2, 1-[2-(1,4-Benzodioxanyl)-methyl]-4-(2-hydroxyethyl)-piperazine hemifumarate] the “effect on injection into the femoral artery” value (femoral artery; doses of less than 100 μg/kg) was “no effect”, the “increase in flow rate of the femoral artery” value (femoral artery; 1 mg/kg) was 34% and the “increase in flow rate of the femoral artery” value (femoral artery; 10 mg/kg) was 90%. The “increase in flow rate of the femoral artery” value (femoral artery; 20 mg/kg) was 67%, the “effect on the arterial pressure AP” value (femoral artery; injection into femoral artery, 1, 10, 20 mg/kg) was “no effect” and the “duration of increase in flow rate of the vertebral artery” value ([1]; another test, 2 mg/kg i.v.) was “more than 1 hour”. The “flow rate of the femoral artery” value ([1]; another test, 2 mg/kg i.v.) was “only increased greatly during the injection”, the pulse rate ([1]; first and second tests, i.v.) was “the pulse rate is increased and this effect persists during successive injections” and the “effect of additional injections on the flow rate” value ([1]; first test, additional 0.5 and 5 mg/kg i.v.) was “no effect on the flow rate”. The “increase in vertebral flow rate” value ([1]; second test, beginning of perfusion) was 135%, the “increase in vertebral flow rate” value ([1]; second test, end of perfusion) was 58% and the “effect of subsequent injections on the flow rate” value ([1]; second test, subsequent 1 and 2 mg/kg i.v.) was “no effect on the flow rate”. The dilation of arteries ([1]; summary) was “can dilate either the vertebral artery or the femoral artery or both”, the hypotensive effect ([1]; summary, higher dose) was “at a higher dose, it is hypotensive” and the tachycardiac properties ([1]; summary, low doses) was “possesses tachycardiac properties at low doses”. The femoral flow rate [1, 5] was “is increased very much by the first injection, decreases during the subsequent injections”, the “flow rate of the vertebral artery” value [1, 5] was “increases at each of the injections up to the third” and the “decrease in flow rate of the mesenteric artery” value ([1]; third test, 0.5, 1, 2 and 4 mg/kg i.v., at each injection) was 25%. For the same compound, the cardiac work (coronary flow rate; 5 mg/kg i.v.) was “an increase in the cardiac work”, the “duration of increase in maximum intraventricular pressure” value (coronary flow rate; 5 mg/kg i.v.) was 1 h and the “duration of increase in ratio dp/dt” value (coronary flow rate; 5 mg/kg i.v.) was “more than 1 hour”. The “duration of increase in the differential arterial pressure” value (coronary flow rate; 5 mg/kg i.v.) was 1 h, the duration of tachycardia (coronary flow rate; 5 mg/kg i.v.) was “more than 2 hours” and the “time of maximum effect on coronary flow rate” value (coronary flow rate; 5 mg/kg i.v.) was 1 h. The duration of hypotension (coronary flow rate; 5 mg/kg i.v., can last) was “more than 2 hours”, the cardiac work (coronary flow rate; summary) was “increases the cardiac work” and the coronary irrigation (coronary flow rate; summary) was “increases the coronary irrigation”. The “effect on injection into the vertebral artery” value (vertebral artery; doses of less than 1 mg/kg) was “no effect”, the “decrease in arterial pressure” value (vertebral artery; 10 mg/kg) was 14% and the “decrease in arterial pressure” value (vertebral artery; 20 mg/kg) was 28%. For the same compound, the “α-blocking / α-lytic action” value (adrenergic receptors) was “acts as an α-lytic product”, the “hypertensive effect of adrenalin” value (adrenergic receptors; dogs) was “reverses the hypertensive effect of adrenalin in a lasting manner” and the “hypertensive effects of adrenalin” value (adrenergic receptors; dogs, 5 mg/kg) was “decreases the said effects”. The “hypertensive effects of adrenalin” value (adrenergic receptors; dogs, 7 mg/kg) was “inhibits them strongly”, the “hypertensive effects of adrenalin” value (adrenergic receptors; dogs, 10 mg/kg) was “overcomes the α + effect of adrenalin” and the LD50 [2] was 97 ± 2 mg/kg. The NOAEL [2] was 90 mg/kg, the “results in clinical studies in man” value (man; tablets 50 mg or injectable ampoules 10 mg) was “good results” and the “effect of the stimulation of the peripheral vagus” value [3] was “does not alter”. The “effects of the injection of acetylcholine” value [3] was “does not alter” and the “effects of the injection of isoprenalin” value [3] was “does not alter”.
With `OCC(O)CN1CCN(CC2COc3ccccc3O2)CC1` (centres unmarked) [Example 3, 1-[2-(1,4-Benzodioxanyl)-methyl]-4-(2,3-dihydroxypropyl)-piperazine dihydrochloride] the AP ([1]; i.v., 1 mg to 13 mg/kg) was “little effect on the AP or a slight hypotension”, the cardiac output ([1]; i.v., 1 mg to 13 mg/kg) was “scarcely changed” and the “differential AP” value ([1]; i.v., 1 mg to 13 mg/kg) was “An increase in the differential AP”. The dp/dt ([1]; i.v., 1 mg to 13 mg/kg) was “an increase in dp/dt”, the “effect on the vertebral flow rate” value ([1]; i.v., 1 mg to 13 mg/kg) was “no effect on the vertebral flow rate” and the ejection time ([1]; i.v., 1 mg to 13 mg/kg) was “shortening of the ejection time”. The “rise in the pulse rate” value ([1]; i.v., 1 mg to 13 mg/kg) was ≤ 25%, the “cardiovascular variations after intraduodenal administration” value (intestinal barrier; 10 and 50 mg/kg intraduodenally) was “the variations described after intravenous injection are found again” and the “passage through the intestinal barrier” value (intestinal barrier; dihydrochloride) was “passes easily through the intestinal barrier”. For the same compound, the “hypertensive effect of adrenalin” value (adrenergic receptors; 10 mg/kg intraduodenally) was “reversal of the hypertensive effect of adrenalin”, the “α-blocking / α-lytic action” value (adrenergic receptors) was “α-blocking agent” and the LD50 [2] was 260 ± 11 mg/kg. For the same compound, the NOAEL [2] was > 170 mg/kg and the “results in man in vascular complaints” value (man; tablets containing 20 mg, 2 to 3 per day) was “good results in vascular complaints”.
For `CCC(=O)OCCN1CCN(CC2COc3ccccc3O2)CC1` (centres unmarked) [Example 6, 1-[2-(1,4-Benzodioxanyl)-methyl]-4-[2-(propionyloxy)-ethyl]-piperazine dihydrochloride], the “mechanism of the vasodilating effect” value (femoral artery; conclusion) was “exclusively an alphalytic mechanism”, the “vasodilating effect at higher doses” value (femoral artery; femoral intra-arterial, up to and including 10 mg, dihydrochloride) was “do not produce a greater vasodilation; also recorded: maximal from the very start and cannot be increased by higher doses” and the “dose from which flow rate is increased by 200%” value (femoral artery; injected directly into the femoral artery) was 10 µg. For the same compound, the femoral flow rate [1, 6] was “increased in the tests wherein an increase in the pulse rate is observed”, the intraventricular pressure [1, 6] was “decreased” and the pulse rate [1, 6] was “either is not altered (2 tests) or is increased”. For the same compound, the ratio dp/dt [1, 6] was “decreased”, the hypotensive effect ([1]; 4 anaesthetised dogs, 2.5, 5 and 10 mg/kg i.v. over 5 minutes) was “A hypotensive effect proportional to the dose” and the “time in which the femoral flow rate effect disappears” value ([1]; 4 anaesthetised dogs, i.v.) was 15 min. For the same compound, the vertebral flow rate ([1]; 4 anaesthetised dogs, i.v.) was “only increases in one of the two tests wherein the pulse rate was increased”, the “effect on femoral flow rate, duration and reproducibility” value ([1]; conclusion) was “of short duration and is not reproducible” and the “activity on intraduodenal administration” value (intestinal barrier; 10 mg/kg intraduodenally) was “the activity is found again”. For the same compound, the “passage through the intestinal barrier” value (intestinal barrier) was “passes through the intestinal barrier”, the “α-blocking / α-lytic action” value (adrenergic receptors) was “α-blocking product” and the “dose from which the product is α-blocking (adrenolytic)” value (adrenergic receptors; dogs) was 5 mg/kg. It also gave an LD50 [2] of 109 ± 9 mg/kg.
In the case of `CC(=O)OCCN1CCN(CC2COc3ccccc3O2)CC1` (centres unmarked) [Example 7, 1-[2-(1,4-Benzodioxanyl)-methyl]-4-[2-(acetyloxy)-ethyl]-piperazine dihydrochloride], the hypotension ([1]; from 2.5 mg/kg i.v., both dogs) is reported as “a hypotension”, the left ventricular pressure ([1]; from 2.5 mg/kg i.v., both dogs) is reported as “a decrease in the left ventricular pressure” and the pulse rate ([1]; from 2.5 mg/kg i.v., both dogs) is reported as “does not vary markedly”. For the same compound, the ratio dp/dt ([1]; from 2.5 mg/kg i.v., both dogs) was “decrease”, the systolic ejection time ([1]; from 2.5 mg/kg i.v., both dogs) was “decrease” and the “α-blocking / α-lytic action” value (adrenergic receptors) was “α-lytic”. For the same compound, the “reversal of the hypertension due to adrenalin” value (adrenergic receptors; from 2.5 mg/kg i.v., dogs) was “reversal of the hypertension due to adrenalin”, the “dose from which the product is α-blocking (adrenolytic)” value (adrenergic receptors; dogs) was 2.5 mg/kg and the LD50 [2] was 86 ± 1 mg/kg. For the same compound, the NOAEL [2] was 80 mg/kg.
With `c1cnc(N2CCN(CC3COc4ccccc4O3)CC2)nc1` (centres unmarked) [Example 8, 1-[2-(1,4-Benzodioxanyl)-methyl]-4-(2-pyrimidinyl)-piperazine dihydrochloride] the “passage into the general circulation” value ([4]; 10 mg/kg) was “the product passes into the general circulation”, the “duration of rise in the flow rates” value ([4]; orally, 1 to 10 mg/kg) was 30 min and the “rise in the femoral flow rate” value ([4]; orally, 1 to 10 mg/kg) was 200%. For the same compound, the “rise in the vertebral flow rate” value ([4]; orally, 1 to 10 mg/kg) was 60%, the “flow rate of the femoral artery” value ([4]; orally, less than 100 μg/kg) was “does not alter” and the “flow rate of the vertebral artery” value ([4]; orally, less than 100 μg/kg) was “does not alter”. For the same compound, the “decrease in the vertebral flow rate” value [1, 7] was 19%, the “effect on the mesenteric flow rate” value [1, 7] was “practically no effect” and the “increase in the differential arterial pressure” value [1, 7] was 50%. The tachycardia ([1]; anaesthetised dogs (Nembutal), 2.5 mg/kg i.v. over 5 minutes, increase (+)) was 19%, the femoral vasodilating effect ([1]; anaesthetised dogs (Nembutal), 2.5 mg/kg i.v. over 5 minutes, slight, increase (+)) was 19% and the “α-blocking / α-lytic action” value (adrenergic receptors) was “α-blocking action”. For the same compound, the “hypertensive effect of adrenalin” value (adrenergic receptors; dogs anaesthetised by Nembutal) was “the hypertensive effect of adrenalin is reversed” and the LD50 [2] was 145 ± 10 mg/kg.
